The results in this text go back to PubChem BioAssay (NCI).

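How tested: cells in 96-well plates exposed to compound for 48 hours at five concentrations. Abbreviation: GI50, concentration required for 50% inhibition of growth. Definition used: TGI = concentration required for complete inhibition of growth.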

What all share (assay): DTP human tumour cell line panel, 48 h
For assay [1], the system named is HCC-2998 colon.
Assay [2] concerns HCT-116 colon.
The subject of assay [3] is HCT-15 colon.
The subject of assay [4] is LOX IMVI melanoma.
The test system of assay [5] is NCI-H226 lung.
Assay [6] deals with SN12C renal.
The test system of assay [7] is U251 CNS.
The test system of assay [8] is UO-31 renal.
In assay [9] the test system is OVCAR-3 ovarian.
Assay [10] has as its system TK-10 renal.

The TGI is the concentration giving total growth inhibition. A higher TGI goes with less potent growth arrest. In the case of `COc1ccc(-c2onc(-c3c(C)cc(C)cc3C)c2C2=NCCN2)cc1`, the TGI was more than 100 µM in assay [1]; more than 100 µM in assay [2]; more than 100 µM in assay [3]; more than 100 µM in assay [4]; 89.8 µM in assay [5]; more than 100 µM in [6]. For the same compound, the TGI in assay [7] was 46.7 µM; in assay [8] it was more than 100 µM.

In general, GI50 refers to the concentration that inhibits growth by half. With `Cc1ccc(Sc2oc(-c3ccc(C)cc3)nc2[P+](c2ccccc2)(c2ccccc2)c2ccccc2)cc1`, the GI50 is 0.399 µM in assay [1]; 0.26 µM in [2]; 0.31 µM in assay [3]; 0.166 µM in assay [4]; 0.359 µM in assay [9]; 0.311 µM in assay [6]. The GI50 is 0.447 µM in assay [10], 0.303 µM in assay [7] and 0.24 µM in [8]. The TGI amounted to 1.57 µM in assay [1]; 1.26 µM in [2]; 1.26 µM in [3]; 0.323 µM in assay [4]; 1.33 µM in assay [9]; 1.21 µM in [6]. The TGI in assay [10] was found to be 1.85 µM; in assay [7], 1.41 µM; in [8] it was 0.935 µM.

With `Nc1cc2cccc[n+]2c2cccc(Cl)c12`, the GI50 in assay [1] is 11.4 µM; in assay [2] it was 36.9 µM; in [5] it was 18 µM; in assay [6] it was 7.16 µM; in [10], 94.7 µM; in assay [7], 6.36 µM. Besides, in [8], the GI50 is 61.4 µM. Moreover, the TGI in [1] came to 32.4 µM; in [5] it was 86 µM; in assay [6], 42.1 µM; in assay [7] it was 33.8 µM.

As for `O=C(COc1ccc(Cl)cc1)N1CCN(C(=O)COc2ccc(Cl)cc2)c2ccccc21`, the TGI in assay [1], in assay [2], in assay [4], in [9], in [10] and in assay [7] was more than 100 µM in each case. This compound showed a TGI in [8] of 53.9 µM.

Take `COc1ccc2c(c1)C(=O)c1c-2n(CCCN)c(=O)c2cc([N+](=O)[O-])ccc12`: the GI50 in assay [2] was less than 0.01 µM; in [3] it was 1.77 µM; in assay [4], less than 0.01 µM; in assay [5], less than 0.01 µM; in assay [9], 2.79 µM; in assay [6], less than 0.01 µM. Further, the GI50 was 3.33 µM in assay [10], less than 0.01 µM in assay [7] and less than 0.01 µM in [8]. The TGI in assay [2] was 0.0119 µM; in [3], more than 100 µM; in [4], less than 0.01 µM; in assay [5], less than 0.01 µM; in [9], 15.9 µM; in [6], less than 0.01 µM. Besides, the TGI was found to be 10 µM in assay [10] and 0.0172 µM in [8].

Regarding `CCSc1nc(N)c(C#N)c(-c2ccco2)c1C#N`, the GI50 is 26.8 µM in [2]; 28.4 µM in [3]; 17.1 µM in assay [4]; 29.9 µM in assay [5]; 91.3 µM in [9]; more than 100 µM in [6]. In addition, the values for the GI50 in assay [10], in assay [7] and in [8] were 21.3 µM, 22.7 µM and 56.1 µM, respectively. Moreover, the TGI in [2] is more than 100 µM; in assay [3], more than 100 µM; in assay [4], 37.1 µM; in assay [5] it was more than 100 µM; in assay [9], more than 100 µM; in assay [6] it was more than 100 µM. The TGI in assay [10] is 78.1 µM; in [7], 83.7 µM; in [8] it was more than 100 µM.

As to `CCCCCCCCCCCCCP(=O)(NCC(N)=O)OCC` (stereo not given), the TGI was 35.3 µM in [1]; 28 µM in assay [2]; 36 µM in assay [3]; 33.5 µM in [5]; 28.9 µM in assay [9]; 34.3 µM in assay [6]. Also, the TGI amounted to 37.4 µM in [10], 33 µM in [7] and 27.1 µM in assay [8].

`Cc1c2ccncc2c(C)c2c1c1cc(CO)ccc1n2C`: the GI50 in assay [1] is 0.72 µM; in [2], 0.175 µM; in assay [3], 0.354 µM; in [4] it was 0.449 µM; in assay [9], 0.498 µM; in assay [6], 0.442 µM. Also, the GI50 in [10] was 0.378 µM; in assay [7] it was 0.293 µM; in [8], 0.304 µM. For the same compound, the TGI in assay [1] came to 3.42 µM; in assay [2], 1.66 µM; in [3] it was 10 µM; in assay [4] it was 2.1 µM; in assay [9], 2.32 µM; in [6], 5.35 µM. In addition, the TGI in [10] came to 1.91 µM; in [7] it was 1.94 µM; in assay [8] it was 3.96 µM.

Turning to `Cc1nc2c(sc(=S)n2-c2ccccc2)c2nc3ccccc3n12`, the TGI in [1], in assay [3], in [4], in [5], in [9] and in assay [6] was more than 100 µM each time. In addition, the TGI in [10], in assay [7] and in [8] was more than 100 µM in each case.

In the case of `O=c1c(-c2ccccc2)coc2cc(OC/C(=N/O)c3ccc(F)cc3)ccc12`, the GI50 was 16 µM in assay [2]; 21.3 µM in [3]; 44.1 µM in [4]; 25.1 µM in assay [5]; 19.7 µM in assay [9]; 16.2 µM in assay [6]. Moreover, the GI50 in [10] is 16.9 µM; in [7], 18.2 µM; in assay [8], 17.4 µM. The TGI in [2] is 47.7 µM; in [3] it was 50.3 µM; in [4], more than 100 µM; in assay [5], 77.7 µM; in assay [9], 47.4 µM; in [6], 34.2 µM. The TGI was determined as 39.5 µM in assay [10], 36.8 µM in [7] and 50.2 µM in assay [8].

On to `Nc1ccc(C(=O)N/C(=C\c2cccc([N+](=O)[O-])c2)c2nc3ccc(Cl)cc3[nH]2)cc1`, for which the TGI in assay [1], in assay [3], in assay [9], in [6], in [10] and in assay [7] was more than 100 µM each time. The compound further showed a TGI in assay [8] of more than 100 µM.
